PubChem BioAssay (NCI)
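How tested: cells in 96-well plates exposed to compound for 48 hours at five concentrations. GI50 marks 50% less growth. The concentration for full growth arrest is given as TGI.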

Legend:
Test in all cases: growth of human tumour cells (NCI), 48 h
SW-620 colon = test system: SW-620 colon
U251 CNS = test system: U251 CNS
SF-295 CNS = test system: SF-295 CNS
K-562 leukemia = test system: K-562 leukemia
OVCAR-4 ovarian = test system: OVCAR-4 ovarian
ACHN renal = test system: ACHN renal
SR leukemia = test system: SR leukemia
NCI-H460 lung = test system: NCI-H460 lung
SN12C renal = test system: SN12C renal
NCI-H23 lung = test system: NCI-H23 lung
MDA-MB-435 = test system: MDA-MB-435
IGROV1 ovarian = test system: IGROV1 ovarian
M14 melanoma = test system: M14 melanoma
UO-31 renal = test system: UO-31 renal
SNB-19 CNS = test system: SNB-19 CNS
OVCAR-8 ovarian = test system: OVCAR-8 ovarian
NCI-H522 lung = test system: NCI-H522 lung
UACC-62 melanoma = test system: UACC-62 melanoma
HOP-62 NSCLC = test system: HOP-62 NSCLC
HT29 colon = test system: HT29 colon
786-0 renal = test system: 786-0 renal
HCT-15 colon = test system: HCT-15 colon
HCC-2998 colon = test system: HCC-2998 colon
T-47D breast = test system: T-47D breast
PC-3 prostate = test system: PC-3 prostate
HS 578T breast = test system: HS 578T breast
SK-MEL-28 melanoma = test system: SK-MEL-28 melanoma
A498 renal = test system: A498 renal
SF-539 CNS = test system: SF-539 CNS
BT-549 breast = test system: BT-549 breast
CAKI-1 renal = test system: CAKI-1 renal
MOLT-4 leukemia = test system: MOLT-4 leukemia
HCT-116 colon = test system: HCT-116 colon
NCI/ADR-RES ovarian = test system: NCI/ADR-RES ovarian
SF-268 CNS = test system: SF-268 CNS
SK-OV-3 ovarian = test system: SK-OV-3 ovarian
MDA-MB-231 breast = test system: MDA-MB-231 breast
UACC-257 melanoma = test system: UACC-257 melanoma
LOX IMVI melanoma = test system: LOX IMVI melanoma
EKVX NSCLC = test system: EKVX NSCLC
OVCAR-5 ovarian = test system: OVCAR-5 ovarian
MCF7 breast = test system: MCF7 breast
HOP-92 NSCLC = test system: HOP-92 NSCLC
NCI-H226 lung = test system: NCI-H226 lung
RPMI-8226 leukemia = test system: RPMI-8226 leukemia
KM12 colon = test system: KM12 colon
TK-10 renal = test system: TK-10 renal
SK-MEL-5 melanoma = test system: SK-MEL-5 melanoma
SNB-75 CNS = test system: SNB-75 CNS
CCRF-CEM leukemia = test system: CCRF-CEM leukemia
DU-145 prostate = test system: DU-145 prostate
A549 NSCLC = test system: A549 NSCLC
HL-60(TB) leukemia = test system: HL-60(TB) leukemia
OVCAR-3 ovarian = test system: OVCAR-3 ovarian
COLO 205 colon = test system: COLO 205 colon
SK-MEL-2 melanoma = test system: SK-MEL-2 melanoma
RXF 393 renal = test system: RXF 393 renal

## CCOC1OC(=O)[C@H]2[C@@H]1[C@@H]1CC[C@H]2O1 (stereo partly drawn)
SW-620 colon
  GI50: > 100 µM
  TGI: > 100 µM
U251 CNS
  GI50: > 100 µM
  TGI: > 100 µM
SF-295 CNS
  GI50: > 100 µM
  TGI: > 100 µM
K-562 leukemia
  GI50: > 100 µM
  TGI: > 100 µM
OVCAR-4 ovarian
  GI50: > 100 µM
  TGI: > 100 µM
ACHN renal
  GI50: > 100 µM
  TGI: > 100 µM
SR leukemia
  GI50: 33.8 µM
  TGI: > 100 µM
NCI-H460 lung
  GI50: > 100 µM
  TGI: > 100 µM
SN12C renal
  GI50: > 100 µM
  TGI: > 100 µM
NCI-H23 lung
  GI50: > 100 µM
  TGI: > 100 µM
MDA-MB-435
  GI50: > 100 µM
  TGI: > 100 µM
IGROV1 ovarian
  GI50: > 100 µM
  TGI: > 100 µM
M14 melanoma
  GI50: > 100 µM
  TGI: > 100 µM
UO-31 renal
  GI50: > 100 µM
  TGI: > 100 µM
SNB-19 CNS
  GI50: > 100 µM
  TGI: > 100 µM
OVCAR-8 ovarian
  GI50: > 100 µM
  TGI: > 100 µM
NCI-H522 lung
  GI50: > 100 µM
  TGI: > 100 µM
UACC-62 melanoma
  GI50: > 100 µM
  TGI: > 100 µM
HOP-62 NSCLC
  GI50: > 100 µM
  TGI: > 100 µM
HT29 colon
  GI50: 24.8 µM
  TGI: > 76.3 µM
786-0 renal
  GI50: > 100 µM
  TGI: > 100 µM
HCT-15 colon
  GI50: > 100 µM
  TGI: > 100 µM
HCC-2998 colon
  GI50: 13.4 µM
  TGI: 29.5 µM
T-47D breast
  GI50: > 59.1 µM
  TGI: > 100 µM
PC-3 prostate
  GI50: > 100 µM
  TGI: > 100 µM
HS 578T breast
  GI50: > 100 µM
  TGI: > 100 µM
SK-MEL-28 melanoma
  GI50: 0.378 µM
  TGI: > 100 µM
A498 renal
  GI50: > 100 µM
  TGI: > 100 µM
SF-539 CNS
  GI50: > 100 µM
  TGI: > 100 µM
BT-549 breast
  GI50: > 100 µM
  TGI: > 100 µM
CAKI-1 renal
  GI50: > 100 µM
  TGI: > 100 µM
MOLT-4 leukemia
  GI50: > 100 µM
  TGI: > 100 µM
HCT-116 colon
  GI50: > 100 µM
  TGI: > 100 µM
NCI/ADR-RES ovarian
  GI50: > 100 µM
  TGI: > 100 µM
SF-268 CNS
  GI50: > 100 µM
  TGI: > 100 µM
SK-OV-3 ovarian
  GI50: > 100 µM
  TGI: > 100 µM
MDA-MB-231 breast
  GI50: > 100 µM
  TGI: > 100 µM
UACC-257 melanoma
  GI50: > 100 µM
  TGI: > 100 µM
LOX IMVI melanoma
  GI50: > 100 µM
  TGI: > 100 µM
EKVX NSCLC
  GI50: > 100 µM
  TGI: > 100 µM
OVCAR-5 ovarian
  GI50: > 100 µM
  TGI: > 100 µM
MCF7 breast
  GI50: > 100 µM
  TGI: > 100 µM
HOP-92 NSCLC
  GI50: > 100 µM
  TGI: > 100 µM
NCI-H226 lung
  GI50: > 100 µM
  TGI: > 100 µM
RPMI-8226 leukemia
  GI50: > 29.3 µM
  TGI: > 100 µM
KM12 colon
  GI50: > 76.2 µM
  TGI: > 100 µM
TK-10 renal
  GI50: > 100 µM
  TGI: > 100 µM
SK-MEL-5 melanoma
  GI50: > 100 µM
  TGI: > 100 µM
SNB-75 CNS
  TGI: > 100 µM
CCRF-CEM leukemia
  GI50: > 100 µM
  TGI: > 100 µM
DU-145 prostate
  GI50: > 100 µM
  TGI: > 100 µM
A549 NSCLC
  GI50: > 100 µM
  TGI: > 100 µM
HL-60(TB) leukemia
  GI50: > 100 µM
  TGI: > 100 µM
OVCAR-3 ovarian
  GI50: > 100 µM
  TGI: > 100 µM
COLO 205 colon
  GI50: 7.96 µM
  TGI: > 19.8 µM
SK-MEL-2 melanoma
  GI50: > 100 µM
  TGI: > 100 µM
RXF 393 renal
  GI50: > 100 µM
  TGI: > 100 µM

## O=C(Nc1ccccc1Cl)c1cccc(NC2=C(Cl)C(=O)N(Cc3ccccc3)C2=O)c1
SW-620 colon
  GI50: 26.1 µM
  TGI: > 100 µM
U251 CNS
  GI50: 21 µM
  TGI: > 100 µM
SF-295 CNS
  GI50: 23.3 µM
  TGI: 92.3 µM
K-562 leukemia
  GI50: 2.67 µM
  TGI: 35.3 µM
OVCAR-4 ovarian
  GI50: 3.63 µM
  TGI: 75.8 µM
ACHN renal
  GI50: 60.5 µM
  TGI: > 100 µM
SR leukemia
  GI50: 1.12 µM
  TGI: 3.39 µM
NCI-H460 lung
  GI50: 26.8 µM
  TGI: > 100 µM
NCI-H23 lung
  GI50: 50.5 µM
  TGI: > 100 µM
MDA-MB-435
  GI50: 3.05 µM
  TGI: 10.3 µM
IGROV1 ovarian
  GI50: 0.549 µM
  TGI: 2.29 µM
M14 melanoma
  GI50: 9.32 µM
  TGI: 29.5 µM
UO-31 renal
  GI50: 4.91 µM
  TGI: 53.8 µM
SNB-19 CNS
  GI50: 60.5 µM
  TGI: > 100 µM
OVCAR-8 ovarian
  GI50: 20.8 µM
  TGI: > 100 µM
NCI-H522 lung
  GI50: 7.72 µM
  TGI: 31.1 µM
UACC-62 melanoma
  GI50: 7.36 µM
  TGI: 51 µM
HT29 colon
  GI50: 19.8 µM
  TGI: > 100 µM
786-0 renal
  GI50: 10.2 µM
  TGI: 60.5 µM
HCT-15 colon
  GI50: 14.1 µM
  TGI: > 100 µM
HCC-2998 colon
  GI50: 20.5 µM
  TGI: 54.5 µM
T-47D breast
  GI50: > 100 µM
  TGI: > 100 µM
PC-3 prostate
  GI50: 18.9 µM
  TGI: 99 µM
HS 578T breast
  GI50: 30.2 µM
  TGI: > 100 µM
SK-MEL-28 melanoma
  GI50: 18.6 µM
  TGI: > 100 µM
A498 renal
  GI50: 24.6 µM
  TGI: 89.9 µM
SF-539 CNS
  GI50: 26.7 µM
  TGI: 94.6 µM
BT-549 breast
  GI50: 22.5 µM
  TGI: > 100 µM
CAKI-1 renal
  GI50: 23.2 µM
  TGI: 66.9 µM
MOLT-4 leukemia
  GI50: 2.52 µM
  TGI: > 100 µM
HCT-116 colon
  GI50: 3.18 µM
  TGI: 13.3 µM
NCI/ADR-RES ovarian
  GI50: 46.4 µM
  TGI: > 100 µM
SF-268 CNS
  GI50: 18.6 µM
  TGI: 58.6 µM
SK-OV-3 ovarian
  GI50: > 100 µM
  TGI: > 100 µM
MDA-MB-231 breast
  GI50: 17.1 µM
  TGI: 69.7 µM
UACC-257 melanoma
  GI50: 24.3 µM
  TGI: > 100 µM
LOX IMVI melanoma
  GI50: 7.96 µM
  TGI: > 100 µM
EKVX NSCLC
  GI50: 88.3 µM
  TGI: > 100 µM
OVCAR-5 ovarian
  GI50: > 100 µM
  TGI: > 100 µM
MCF7 breast
  GI50: 11.6 µM
  TGI: 33.4 µM
HOP-92 NSCLC
  GI50: 15 µM
  TGI: > 100 µM
NCI-H226 lung
  GI50: 4.45 µM
  TGI: 46.4 µM
RPMI-8226 leukemia
  GI50: 3.1 µM
  TGI: 20.6 µM
KM12 colon
  GI50: 0.0371 µM
  TGI: 9.86 µM
SK-MEL-5 melanoma
  GI50: 14.1 µM
  TGI: 51.4 µM
SNB-75 CNS
  GI50: 3.55 µM
  TGI: > 100 µM
DU-145 prostate
  GI50: 28.5 µM
  TGI: > 100 µM
A549 NSCLC
  GI50: 49.3 µM
  TGI: > 100 µM
HL-60(TB) leukemia
  GI50: 1.4 µM
  TGI: 20.8 µM
OVCAR-3 ovarian
  GI50: 12.5 µM
  TGI: 33.3 µM
COLO 205 colon
  GI50: 51.2 µM
  TGI: > 100 µM
SK-MEL-2 melanoma
  TGI: 6.38 µM
RXF 393 renal
  GI50: 52.5 µM
  TGI: > 100 µM
